Results published in ChEMBL document CHEMBL1201862, “PubChem BioAssay data set” (2004).
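1) Cells in 96-well plates. 2) Compound, 48 h, 5 concentrations. 3) Linear interpolation between surrounding doses. 4) Unreached endpoint = highest concentration. GI50: concentration for 50% inhibition of growth.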 Activity calls are given as the source filed them. Cut-off read from the data, not from the text of the source: active = GI50 up to about 1.1 µM and inactive = higher.

Tests used:
Test in all cases: NCI-60 cell line screen, 48 h
EKVX = system: EKVX
CAKI-1 = system: CAKI-1
HOP-62 = system: HOP-62
IGROV-1 = system: IGROV-1
NCI-H522 = system: NCI-H522
RPMI-8226 = system: RPMI-8226
DU-145 = system: DU-145
COLO 205 = system: COLO 205
NCI-H23 = system: NCI-H23
MDA-N = system: MDA-N
UACC-62 = system: UACC-62
OVCAR-4 = system: OVCAR-4
SK-MEL-5 = system: SK-MEL-5
HCT-116 = system: HCT-116
SNB-19 = system: SNB-19
U-251 = system: U-251
T47D = system: T47D
BT-549 = system: BT-549
K562 = system: K562
TK-10 = system: TK-10
HCT-15 = system: HCT-15
MDA-MB-435 = system: MDA-MB-435
UO-31 = system: UO-31
LOX IMVI = system: LOX IMVI
Hs-578T = system: Hs-578T
RXF 393 = system: RXF 393
SF-268 = system: SF-268
HL-60 = system: HL-60
KM12 = system: KM12
OVCAR-8 = system: OVCAR-8
Malme-3M = system: Malme-3M
A498 = system: A498
NCI-H460 = system: NCI-H460
SK-MEL-2 = system: SK-MEL-2
OVCAR-5 = system: OVCAR-5
NCI/ADR-RES = system: NCI/ADR-RES
M14 = system: M14
786-0 = system: 786-0
PC-3 = system: PC-3
SF-539 = system: SF-539
MCF7 = system: MCF7
OVCAR-3 = system: OVCAR-3
ACHN = system: ACHN
UACC-257 = system: UACC-257
SW-620 = system: SW-620
MOLT-4 = system: MOLT-4
NCI-H226 = system: NCI-H226
HT-29 = system: HT-29
HOP-92 = system: HOP-92
CCRF-CEM = system: CCRF-CEM
SK-MEL-28 = system: SK-MEL-28
SNB-75 = system: SNB-75
MDA-MB-231 = system: MDA-MB-231
SF-295 = system: SF-295
SR = system: SR
SN12C = system: SN12C
HCC 2998 = system: HCC 2998
A549 = system: A549

`COC(=O)c1ccc(/C=C/c2cc(O)ccc2O)cc1` was tested, and the GI50 (EKVX) was 2.37 µM (inactive), the GI50 (CAKI-1) was 2.43 µM (inactive) and the GI50 (HOP-62) was 27.2 µM (inactive). For the same molecule, the GI50 (IGROV-1) was 2.62 µM (inactive), the GI50 (NCI-H522) was 0.194 µM (active) and the GI50 (RPMI-8226) was 0.333 µM (active). The GI50 (DU-145) was 14.9 µM (inactive), the GI50 (COLO 205) was 4.97 µM (inactive) and the GI50 (NCI-H23) was 4.39 µM (inactive). For the same molecule, the GI50 (MDA-N) was 3.44 µM (inactive), the GI50 (UACC-62) was 2.87 µM (inactive) and the GI50 (OVCAR-4) was 4.5 µM (inactive). The GI50 (SK-MEL-5) was 3.82 µM (inactive), the GI50 (HCT-116) was 5.75 µM (inactive) and the GI50 (SNB-19) was 33.3 µM (inactive). For the same molecule, the GI50 (U-251) was 2.51 µM (inactive), the GI50 (T47D) was 1.6 µM (inactive) and the GI50 (BT-549) was 1.11 µM (active). The GI50 (K562) was 1.04 µM (active), the GI50 (TK-10) was 8.43 µM (inactive) and the GI50 (HCT-15) was 3.01 µM. For the same molecule, the GI50 (MDA-MB-435) was 3.21 µM (inactive), the GI50 (UO-31) was 1.47 µM (inactive) and the GI50 (LOX IMVI) was 2.24 µM (inactive). For the same molecule, the GI50 (Hs-578T) was 4.95 µM (inactive), the GI50 (RXF 393) was 2.25 µM (inactive) and the GI50 (SF-268) was 2.15 µM (inactive). The GI50 (HL-60) was 0.269 µM (active), the GI50 (KM12) was 3.81 µM (inactive) and the GI50 (OVCAR-8) was 2.67 µM (inactive). The GI50 (Malme-3M) was 0.923 µM (active), the GI50 (A498) was 5.15 µM (inactive) and the GI50 (NCI-H460) was 8.45 µM (inactive). For the same molecule, the GI50 (SK-MEL-2) was 14.3 µM (inactive), the GI50 (OVCAR-5) was 5.07 µM (inactive) and the GI50 (NCI/ADR-RES) was 2.08 µM (inactive). For the same molecule, the GI50 (M14) was 13.1 µM (inactive), the GI50 (786-0) was 3.05 µM (inactive) and the GI50 (PC-3) was 1.48 µM (inactive). For the same molecule, the GI50 (SF-539) was 1.6 µM (inactive), the GI50 (MCF7) was 5.14 µM (inactive) and the GI50 (OVCAR-3) was 1.18 µM (inactive). For the same molecule, the GI50 (ACHN) was 3.19 µM (inactive), the GI50 (UACC-257) was 6.27 µM (inactive) and the GI50 (SW-620) was 3.69 µM (inactive). For the same molecule, the GI50 (MOLT-4) was 0.255 µM (active), the GI50 (NCI-H226) was 12.6 µM (inactive) and the GI50 (HT-29) was 30.3 µM (inactive). The GI50 (HOP-92) was 2.44 µM (inactive), the GI50 (CCRF-CEM) was 0.242 µM (active) and the GI50 (SK-MEL-28) was 13.9 µM (inactive). The GI50 (SNB-75) was 15 µM (inactive), the GI50 (MDA-MB-231) was 2.74 µM (inactive) and the GI50 (SF-295) was 13.1 µM (inactive). The GI50 (SR) was 0.787 µM (active), the GI50 (SN12C) was 2.38 µM (inactive) and the GI50 (HCC 2998) was 20 µM (inactive). For the same molecule, the GI50 (A549) was 19.8 µM (inactive).
